Tests used:
HMGB‐1 = test: Immunofluorescence staining of HMGB-1 (release) in MCA205 cells; format: cell-based, mouse; conditions: MCA205, PS at IC50, illumination at 740 nm
Experimental: We then used the corresponding IC50 values of each PS to evaluate their in vitro ICD induction on MCA205 cells. […] As a result, we chose Ce6 as the positive control for our subsequent in vivo tests on MCA205 cells.
Scientific, Catalog no.15 5411) at a d ensity of 8,00 0 cells p er well and cultu red fo r 24 h at 37 °C with 5 % CO2. T he cells wer e then treated with a solution of the compounds at a concentration corresponding to the IC50 for 4 h. After refreshing the medium, cells were subjected to irradiation and incubated for an additional 12 h. Subsequently, the cells were fix ed with 4% paraformaldehyde and immunostained with Anti- Calreticulin antibody (Abcam, Catalog no. ab2907) diluted 1/1000 at 4 °C overnight. Cells were then washed three times with PBS, treated with Goat Anti- Rabbit IgG H&L (Alexa […]
temperature in the dark, washed in PBS and treat ed with 10 µg/mL Hoechst for 15 min.
After a final wash, cells were analyzed by confocal microscopy as det ailed above.
Immunofluorescence st aining of HMGB-1
CT26 or MCA205 cells were seeded in Lab -Te k ® Chambered Coverglass System (Thermo Fisher Scientific, Catalog no.155411) at a density of 8,000 cells per well and cultured for 24 h at 37 °C with 5% CO2. The cells were then treated with a solution of the compounds at a concentration corresponding to the IC50 for 4 h. […]

MCA205 cells = test: Annexin V-FITC/propidium iodide (AV/PI) cell viability assay by flow cytometry; format: cell-based, mouse; conditions: MCA205, 740 nm LED light illumination
Source text: Regarding the optimal dose of each drug for in vivo vaccination, we continued to follow the same standards as with CT26‐luc cells, using the concentration of each drug that results in approximately 5% of live cells as the in vivo dose. The testing method remained the same, using the AV/PI dual staining assay. Negative controls still included the untreated group (direct injection of PBS solution) and the non‐ICD inducer Cisplatin. Based on the in vitro HMGB‐1 release results, Ce6 was maintained as the positive control. For a more comprehensive comparison, we also added the platinum‐based chemotherapeutic agent Oxaliplatin as a non‐PS ICD inducer, serving as an additional positive control.
As the drug concentration increased, the cells gradually shifted to dying (Q3, Annexin V^+/PI^−) or dead (Q2, Annexin V^+/PI^+ and Q1, Annexin V^−/PI^+) state. For MCA205 cells, the concentrations corresponding to approximately 5% cell survival for each drug were 500 µM Cisplatin and 1400 µM Oxaliplatin in the dark, 5.5 µM Ce6 and 3 µM Os2 under 740 nm LED light illumination. […]
incubated for 24 h. Cells were then treat ed with the determined IC50 of complexes and irradiated or kept in the dark. Supernatants were collected 12 h post-t reatm ent, and the extracellular ATP content was measured with Adenosine 5′ -triphosphate (ATP) Bioluminescent Assay Kit (Sigma-Aldrich) according tomanufacturer ’s ins truction.
Cell viability assay f o r in vivo by flow cytometry
CT26-luc or MCA205 cells were seeded in 6-well plates at a density of 1 ×1 05 cells per well and cultured for 24 h at 37 °C with 5% CO 2. The medium was replaced by various concentrations of the compound dilutions in fresh medium.For Ce6 and Os2, after 4 h incubation in the dark, the medium w as r efr eshed and the plates wer e illuminated with a LUMOS-BIO photoreactor (Atlas Photonics), followed by an additional 20- h incubation in the dark. […]
556419) and PI (BD Biosciences, Catalog no.51- 66211E). CT26- luc cells were analyzed by flow cytometry (Beckm an Coulter Life Sciences, CytoFLEX LX Flow Cytometer). […]

IFN‐γ and IL‐17A = test: Cytokine assay (ELISA) in serum after vaccination; format: in vivo, BALB/c mice; conditions: day 7, compared to Control and Cisplatin groups
Source text: Encouraged by the excellent performance of Os2 in inducing ICD both in vitro and in vivo, we decided to further evaluate the antitumor immune response following vaccination. A key feature of ICD is its ability to initiate antigen‐specific adaptive immune responses. To assess this, we measured the immune cell response in the spleens and the cytokine levels in the serum of mice 7 days after vaccination (Figures 6A and S28).
PerCp Cy5.5 (Biolegend, Catalog no.100217, cl one 17A2), anti -CD4- Kiravia 520 (Biolegend, Catalog no. 100477, clone GK1.5), anti-CD8a-BUV496 (Ther mo F i s h er […]
transcription factor staini ng, the cells were treat ed with True- Nuclear™ Transcription Factor Buffer Set (Biolegend, Catalog no. 424401) after surface staining an d re-stained with fluorescen ce-labeled anti-IFNγ-PE (Biolegend, Catalog no. 505807, clone XMG1.2), anti-FoxP3- BV421 (Biolegend, Catalog no.126419, clone MF-14) and Zombie NIR™Fixable Viability Kit( Biolegend,Catalog no.423105).
Serum samples were obt ained from the mice on day 7 after treatment. Cytokine was detected using ELISA kits according to the manufacturer ’s instructions: IFN-γ (Biolegend, Catalog no. 430807) and IL -17A ( Bi olegend, Catalog no.432507).
All the analysis data are given as mean ± SEM. […]

C=Cc1c(C)c2cc3nc(c(CC(=O)O)c4[nH]c(cc5nc(cc1[nH]2)C(C)=C5CC)c(C)c4C(=O)O)[C@@H](CCC(=O)O)[C@@H]3C [Ce6, chlorin e6]
HMGB‐1 release (HMGB‐1): significantly promoted | Concentration corresponding to approximately 5% cell survival (MCA205 cells): 5.5 µM | IFN‐γ level in serum (IFN‐γ and IL‐17A): significant increase | IL‐17A level in serum (IFN‐γ and IL‐17A): significant increase
